From patent US20230141600A1, “IMIDAZOPYRAZINE DERIVATIVES” (priority 2020, published 2023) come the findings set out here.

Where a name gives a salt, the structure may show the parent alone.

The IC90 is the point of the concentration-response curve where the effect stands at 90%.

The test system of one experiment is Acinetobacter baumannii ATCC17978. The experiment can be described thus: 90% growth inhibitory concentration (IC90) determination, antimicrobial susceptibility testing. The experiment is classed as cell-based. The conditions noted are these: ATCC17978, 90% growth inhibition, Iso-Sensitest broth, OD 600 nm over 16 h, 35±2° C., read-out: ATCC 17978 IC90. How it is done:
Antimicrobial Susceptibility Testing:
90% Growth Inhibitory Concentration (IC90) Determination
The in vitro antimicrobial activity of the compounds was determined according to the following procedure:
The assay used a 10-points Iso-Sensitest broth medium to measure quantitatively the in vitro activity of the compounds against Acinetobacter baumannii ATCC17961 and ATCC17978.
Stock compounds in DMSO were serially twofold diluted (e.g. range from 50 to 0.097 μM final concentration) in 384 wells microtiter plates and inoculated with 49 μl the bacterial suspension in Iso-Sensitest medium to have a final cell concentration of ˜5×10^(5) CFU/ml in a final volume/well of 50 ul/well. Microtiter plates were incubated at 35±2° C.
Bacterial cell growth was determined with the measurement of optical density at λ=600 nm each minutes over a time course of 16 h. Growth inhibition was calculated during the logarithmic growth of the bacterial cells with determination of the concentration inhibiting 50% (IC50) and 90% (IC90) of the growth.
Table 1 provides the 90% growth inhibitory concentrations (IC90) in micromoles per liter of the compounds of present invention obtained against the strain Acinetobacter baumannii ATCC17978.
As for `CCc1cc(Nc2nccn3c(-c4ccc(Cl)c(F)c4F)cnc23)ccc1C(=O)NCCC[N+](C)(C)C` [Example 28, 3-(4-((3-(4-Chloro-2,3-difluorophenyl)imidazo[1,2-a]pyrazin-8-yl)amino)-2-ethylbenzamido)-N,N,N-trimethylpropan-1-aminium Formate], the IC90 is 605 nM.

In the case of `Cc1cc(Nc2nccn3c(-c4ccc(OC(F)F)cc4)cnc23)ccc1C(=O)N1CCC(CC[N+](C)(C)C)CC1` [Example 29, 2-(1-(4-((3-(4-(Difluoromethoxy)phenyl)imidazo[1,2-a]pyrazin-8-yl)amino)-2-methylbenzoyl)piperidin-4-yl)-N,N,N-trimethylethanaminium Formate], the IC90 worked out at 293 nM.

With `Cc1cc(Nc2nccn3c(-c4ccc(OC(F)F)cc4)cnc23)ccc1C(=O)N1CCN(C(=O)N2CC[N+](C)(C)CC2)CC1` [Example 30, [4-[[3-[4-(Difluoromethoxy)phenyl]imidazo[1,2-a]pyrazin-8-yl]amino]-2-methyl-phenyl]-[4-(4,4-dimethylpiperazin-4-ium-1-carbonyl)piperazin-1-yl]methanone Formate], the IC90 is 497 nM.

`COc1ccc(-c2cnc3c(Nc4ccc(C(=O)N5CCN(C(=O)C[N+](C)(C)C)CC5)c(Cl)c4)nccn23)cc1F` [Example 31, [2-[4-[2-Chloro-4-[[3-(3-fluoro-4-methoxyphenyl)imidazo[1,2-a]pyrazin-8-yl]amino]benzoyl]piperazin-1-yl]-2-oxoethyl]-trimethylazanium Formate]: the 90% effect concentration (IC90) stood at 120 nM.

As for `COc1ccc(-c2cnc3c(Nc4ccc(C(=O)N5CCN(C(=O)C[N+](C)(C)C)CC5)c(C)c4)nccn23)cc1F` [Example 32, 2-(4-(4-((3-(3-Fluoro-4-methoxyphenyl)imidazo[1,2-a]pyrazin-8-yl)amino)-2-methylbenzoyl)piperazin-1-yl)-N,N,N-trimethyl-2-oxoethan-1-aminium Iodide], the IC90 is 307 nM.

On to `Cc1cc(Nc2nccn3c(-c4ccc(OC(F)F)cc4)cnc23)ccc1C(=O)N1CCN(C(=O)N2CCOC(C[N+](C)(C)C)C2)CC1` (centres unmarked) [Example 33, [4-[4-[4-[[3-[4-(Difluoromethoxy)phenyl]imidazo[1,2-a]pyrazin-8-yl]amino]-2-methyl-benzoyl]piperazine-1-carbonyl]morpholin-2-yl]methyl-trimethyl-ammonium Formate], for which the IC90 is 996 nM.

For `CN(CCN1CC[N+](C)(C)CC1)C(=O)c1ccc(Nc2nccn3c(-c4ccc(OCC#N)c(F)c4F)cnc23)cc1Cl` [Example 34, 2-Chloro-4-[[3-[4-(cyanomethoxy)-2,3-difluoro-phenyl]imidazo[1,2-a]pyrazin-8-yl]amino]-N-[2-(4,4-dimethylpiperazin-4-ium-1-yl)ethyl]-N-methyl-benzamide iodide], the IC90 was 246 nM.

On to `COc1ccc(-c2cnc3c(Nc4ccc(C(=O)N(C)CCOCC[N+](C)(C)C)c(C)c4)nccn23)cc1F` [Example 35, 2-(2-(4-((3-(3-Fluoro-4-methoxyphenyl)imidazo[1,2-a]pyrazin-8-yl)amino)-N,2-dimethylbenzamido)ethoxy)-N,N,N-trimethylethan-1-aminium Chloride], for which the IC90 is 1050 nM.

As to `Cc1cc(Nc2nccn3c(-c4ccc(OC(F)F)cc4)cnc23)ccc1C(=O)N1CCN(C(=O)NCC[N+](C)(C)C)CC1` [Example 36, 2-[[4-[4-[[3-[4-(Difluoromethoxy)phenyl]imidazo[1,2-a]pyrazin-8-yl]amino]-2-methyl-benzoyl]piperazine-1-carbonyl]amino]ethyl-trimethyl-ammonium Formate], the IC90 is 431 nM.

Take `CN(CCC1CC[N+](C)(C)CC1)C(=O)c1ccc(Nc2nccn3c(-c4ccc(OCC#N)c(F)c4F)cnc23)cc1Cl` [Example 38, 2-Chloro-4-[[3-[4-(cyanomethoxy)-2,3-difluoro-phenyl]imidazo[1,2-a]pyrazin-8-yl]amino]-N-[2-(1,1-dimethylpiperidin-1-ium-4-yl)ethyl]-N-methyl-benzamide 2,2,2-trifluoroacetate]: the IC90 turned out to be 213 nM.

Consider `Cc1cc(Nc2nccn3c(-c4ccc(OC(F)F)cc4)cnc23)ccc1C(=O)N(C)CCC1CCN(C(=O)CC(O)C[N+](C)(C)C)CC1` (centres unmarked) [Example 39, 4-(4-(2-(4-((3-(4-(Difluoromethoxy)phenyl)imidazo[1,2-a]pyrazin-8-yl)amino)-N,2-dimethylbenzamido)ethyl)piperidin-1-yl)-2-hydroxy-N,N,N-trimethyl-4-oxobutan-1-aminium Formate], for which the IC90 was 2380 nM.

Regarding `CCc1cc(Nc2nccn3c(-c4ccc(OC)c(F)c4F)cnc23)ccc1C(=O)NCCOCC[N+](CC)(CC)CC` [Example 40, 2-(2-(4-((3-(2,3-Difluoro-4-methoxyphenyl)imidazo[1,2-a]pyrazin-8-yl)amino)-2-ethylbenzamido)ethoxy)-N,N,N-triethylethan-1-aminium Formate], the IC90 came out at 165 nM.

`CCc1cc(Nc2nccn3c(-c4ccc(OCC#N)c(F)c4F)cnc23)ccc1C(=O)NCCOCC[N+](C)(C)C` [Example 41, 2-[2-[[4-[[3-[4-(Cyanomethoxy)-2,3-difluoro-phenyl]imidazo[1,2-a]pyrazin-8-yl]amino]-2-ethyl-benzoyl]amino]ethoxy]ethyl-trimethyl-ammonium Iodide]: the 90% effect concentration (IC90) came out at 132 nM.

`Cc1cc(Nc2nccn3c(-c4ccc(OC(F)F)cc4)cnc23)ccc1C(=O)N1CCN(C(=O)C[N+](C)(C)C)CC1` [Example 42, [2-[4-[4-[[3-[4-(Difluoromethoxy)phenyl]imidazo[1,2-a]pyrazin-8-yl]amino]-2-methyl-benzoyl]piperazin-1-yl]-2-oxo-ethyl]-trimethyl-ammonium Chloride]: the IC90 worked out at 414 nM.

As to `COc1ccc(-c2cnc3c(Nc4ccc(C(=O)NCCOCC[N+](C)(C)C)c(Br)c4)nccn23)c(F)c1F` [Example 44, 2-[2-[[2-bromo-4-[[3-(2,3-difluoro-4-methoxy-phenyl)imidazo[1,2-a]pyrazin-8-yl]amino]benzoyl]amino]ethoxy]ethyl-trimethyl-ammonium 2,2,2-trifluoroacetate], the IC90 stood at 148 nM.

As for `CCC[N+](CCC)(CCC)CCOCCNC(=O)c1ccc(Nc2nccn3c(-c4ccc(OCC#N)c(F)c4F)cnc23)cc1Cl` [Example 45, 2-[2-[[2-Chloro-4-[[3-[4-(cyanomethoxy)-2,3-difluoro-phenyl]imidazo[1,2-a]pyrazin-8-yl]amino]benzoyl]amino]ethoxy]ethyl-tripropyl-ammonium Iodide], the IC90 worked out at 321 nM.

As to `C[N+]1(CCOCCNC(=O)c2ccc(Nc3nccn4c(-c5ccc(OCC#N)c(F)c5F)cnc34)cc2Cl)CCCC1` [Example 46, 2-Chloro-4-[[3-[4-(cyanomethoxy)-2,3-difluoro-phenyl]imidazo[1,2-a]pyrazin-8-yl]amino]-N-[2-[2-(1-methylpyrrolidin-1-ium-1-yl)ethoxy]ethyl]benzamide Formate], the 90% effect concentration (IC90) came to 161 nM.

As to `COc1ccc(-c2cnc3c(Nc4ccc(C(=O)NCCC[N+](C)(C)C)c(Cl)c4)nccn23)c(F)c1F` [Example 47, 3-[[2-Chloro-4-[[3-(2,3-difluoro-4-methoxy-phenyl)imidazo[1,2-a]pyrazin-8-yl]amino]benzoyl]amino]propyl-trimethyl-ammonium Formate], the IC90 was found to be 383 nM.

For `CC[N+](CC)(CC)CCCNC(=O)c1ccc(Nc2nccn3c(-c4ccc(OC)c(F)c4F)cnc23)cc1Cl` [Example 48, 3-[[2-Chloro-4-[[3-(2,3-difluoro-4-methoxy-phenyl)imidazo[1,2-a]pyrazin-8-yl]amino]benzoyl]amino]propyl-triethyl-ammonium Formate], the IC90 was 566 nM.

For the molecule `CCCC[N+](CCCC)(CCCC)CCCNC(=O)c1ccc(Nc2nccn3c(-c4ccc(OC)c(F)c4F)cnc23)cc1Cl` [Example 49, Tributyl-[3-[[2-chloro-4-[[3-(2,3-difluoro-4-methoxy-phenyl)imidazo[1,2-a]pyrazin-8-yl]amino]benzoyl]amino]propyl]ammonium Formate], the 90% effect concentration (IC90) is 968 nM.

For the molecule `CCc1cc(Nc2nccn3c(-c4ccc(OC)c(F)c4F)cnc23)ccc1C(=O)NCCOCC[N+](C)(C)CC(=O)O` [Example 50, Carboxymethyl-[2-[2-[[4-[[3-(2,3-difluoro-4-methoxy-phenyl)imidazo[1,2-a]pyrazin-8-yl]amino]-2-ethyl-benzoyl]amino]ethoxy]ethyl]-dimethyl-ammonium Formate], the IC90 came to 394 nM.

Regarding `CCc1cc(Nc2nccn3c(-c4ccc(OC)c(F)c4F)cnc23)ccc1C(=O)NCCOCC[N+](C)(C)CCO` [Example 51, 2-[2-[[4-[[3-(2,3-Difluoro-4-methoxy-phenyl)imidazo[1,2-a]pyrazin-8-yl]amino]-2-ethyl-benzoyl]amino]ethoxy]ethyl-(2-hydroxyethyl)-dimethyl-ammonium formate], the IC90 came to 62.8 nM.

Staying with this experiment, now noted: ATCC17978, 16 h, read-out: ATCC 17978 IC90.
Take `COc1ccc(-c2cnc3c(Nc4ccc(C(=O)N5CC[C@@H](C(=O)NCC[N+](C)(C)C)[C@H](O)C5)c(C)c4)nccn23)cc1F` [Example 37, 2-[[(3S,4R)-1-[4-[[3-(3-fluoro-4-methoxy-phenyl)imidazo[1,2-a]pyrazin-8-yl]amino]-2-methyl-benzoyl]-3-hydroxy-piperidine-4-carbonyl]amino]ethyl-trimethyl-ammonium Formate]: the IC90 came out at 4770 nM.
